What was measured:
Format in all cases: cell-based
[1] = test system: Apolipoprotein C2 (ApoC2); assay: Expression profiling (Agilent whole human genome microarray), ApoC2 mRNA in human tumor cell lines; settings: for Gene expression value, Apolipoprotein C2 (ApoC2), treated vs untreated: 50 μM, 24 hours
Experimental: (§1) The study includes three human tumor cell lines: A549, Panc-1, and SK-OV-3. The lines are each grown in two flasks cultured to roughly 40% confluence. One of the flasks is treated by addition of compound to the culture media at a various concentrations, i.e. 10 μM, 20 μM 50 μM, or 100 μM. The other, mock treated, flask is treated only with the vehicle used to solubilize and deliver the drug. RNA extracted from the pairs of treated and untreated samples is subjected to microarray analysis on Agilent Whole Human Genome Microarrays (G4112F). Each analysis reports the difference in abundance of messenger RNAs for each of the 41,000 specific mRNA detectors on the array. This direct comparison of the treated versus untreated samples for each cell line provides extremely sensitive detection of changes in mRNA abundance resulting from the drug treatment. As each cell line comparison is self-normalized, the results can be compared across the samples with high confidence.
(§2) Three human tumor cell lines, A549, Panc-1, and SK-OV-3, are each grown in two flasks cultured to roughly 40% confluence. One of the flasks is treated by addition of compound to the culture media at concentrations of 10 μM, 50 μM and 100 μM. The other, mock treated, flask is treated only with the vehicle used to solubilize and deliver the drug. All flasks are cultured for a further 24 hours, and then the cells are scraped free and washed in ice-cold PBS, then collected by centrifugation. The harvested cells are immediately frozen, and stored at −80° C. or colder.
(§3) Total RNA is prepared from the frozen tissue samples using Trizol-based cell lysis followed by 65° C. hot phenol extraction and RNeasy chromatography purification. The purified RNA samples are analyzed spectrophotometrically. The concentration of RNA is determined by measuring the absorbance at 260 nm (A260). Given an absorbance of 1 unit at 260 nm corresponds to […] of RNA per ml when measured at pH 11.
(§4) All RNAs are labeled using 1 microgram of RNA as input to an Agilent Low Input Labeling reaction.
(§5) Test RNA is labeled with Cy5 (650 nm emitter) and reference RNA is labeled with Cy3 (550 nm emitter) nucleotides. Labeling, hybridizations and subsequent washings are carried out on Agilent H1Av2 human expression chips. The resulting hybridized chips are scanned on an Agilent microarray scanner, and intensity information for each detector spot is extracted from the scanned image using Agilent feature extraction software. […]
(§6) After the ratios have been calculated for the normalized data, the various control and duplicate samples are analyzed to build a model of how reproducible the results are, and how this reproducibility is varies depending on signal strength and noise. […]

[2] = test system: Apolipoprotein C3 (ApoC3); assay: Expression profiling (Agilent whole human genome microarray), ApoC3 mRNA in human tumor cell lines; settings: for Gene expression value, Apolipoprotein C3 (ApoC3), treated vs untreated: 50 μM, 24 hours
Experimental: as §1, §2, §3, §4, §5, §6

[3] = test system: Lipoprotein Lipase mRNA (LPL); assay: Expression profiling (Agilent whole human genome microarray), LPL mRNA in human tumor cell lines; settings: for Gene expression value, Lipoprotein Lipase mRNA (LPL), treated vs untreated: 50 μM, 24 hours
Experimental: as §1, §2, §3, §4, §5, §6

[4] = human tumor cell lines SKOV-3, A549 and Panc-1, summary of Table 1

**Q.** With `COCCCCCC[C@@H]1C[C@@H]2[C@H](CC[C@]3(C)C(O)CC[C@@H]23)c2ccc(O)cc21` (stereo partly drawn) [Compound 21, (6R,8R,9S,13S,14S)-6-(6-methoxyhexyl)-13-methyl-7,8,9,11,12,13,14,15,16,17-decahydro-6H-cyclopenta[a]phenanthrene-3,17-diol] as the compound, how does the “Gene expression value, Apolipoprotein C2 (ApoC2), treated vs untreated” value ([1]; A549 cells) read?
**A.** 7.21 log2

**Q.** What about the “Gene expression value, Apolipoprotein C2 (ApoC2), treated vs untreated” value ([1]; Panc-1 cells) of the same compound?
**A.** 6.91 log2

**Q.** What about the “Gene expression value, Apolipoprotein C2 (ApoC2), treated vs untreated” value ([1]; SKOV-3 cells) of the same compound?
**A.** 3.89 log2

**Q.** And the “Regulation of the ApoC2 gene (in words)” value [1, 4]?
**A.** up-regulate

**Q.** What about the “Gene expression value, Apolipoprotein C3 (ApoC3), treated vs untreated” value ([2]; A549 cells) of the same compound?
**A.** 0 log2

**Q.** What about the “Gene expression value, Apolipoprotein C3 (ApoC3), treated vs untreated” value ([2]; Panc-1 cells) of the same compound?
**A.** 0 log2

**Q.** And the “Gene expression value, Apolipoprotein C3 (ApoC3), treated vs untreated” value ([2]; SKOV-3 cells)?
**A.** 0 log2

**Q.** And the “Regulation of the ApoC3 gene (in words)” value [2, 4]?
**A.** but not the ApoC3 gene

**Q.** And the “Gene expression value, Lipoprotein Lipase mRNA (LPL), treated vs untreated” value ([3]; A549 cells, p = 0.0018)?
**A.** 2.95 log2

**Q.** And the “Gene expression value, Lipoprotein Lipase mRNA (LPL), treated vs untreated” value ([3]; Panc-1 cells)?
**A.** 3.90 log2

**Q.** And the “Gene expression value, Lipoprotein Lipase mRNA (LPL), treated vs untreated” value ([3]; SKOV-3 cells, p = 0.008)?
**A.** 2.77 log2

**Q.** And the “Regulation of the LPL gene (in words)” value [3, 4]?
**A.** up-regulate

— patent US20150265630A1, “6-Substituted Estradiol Derivatives for the Treatment of Alzheimer's Disease” (Endece LLC, priority 2014, published 2015)
